Experimental data: paper PMC8945229, “Development and Biological Characterization of a Novel Selective TrkA Agonist with Neuroprotective Properties against Amyloid Toxicity” (Biomedicines, 2022)

Key:
[1] = test system: Primary hippocampal neurons; experiment: TUNEL assay in primary hippocampal neurons treated with oligomeric Aβ; type: cell-based, mouse; conditions: 5 μM oligomeric Aβ, 500 nM every 24 h, 48 h
Method: Primary hippocampal neurons were isolated from E17.5 mouse embryos (C57BL/6J, The Jackson Laboratory, Bar Harbor, ME, USA) as previously described and cultured with Neurobasal medium containing 2% B27, 1X GlutaMax, 10 mM HEPES and 1% PenStrep. Cells were maintained in a humified incubator at 37 °C and 5% CO2. For TUNEL assay, cells were left in culture for 16–18 days and then treated with 5 μM oligomeric Aβ along with ENT-A013 (500 nM, every 24 h) for 48 h. Cells were then fixed with 4% PFA and labelled with TUNEL (F. Hoffmann–La Roche Ltd., Basel, Switzerland, cat# 11684795910) following the manufacturer’s protocol. Subsequently, cells were immunostained against Tuj1 and imaged with confocal microscopy. For synaptic plasticity assay, cells were left in culture for 16–18 days and then treated with 5 μM oligomeric Aβ along with ENT-A013 (500 nM) for 4 h. Cells were then fixed with 4% PFA and immunostained against Tuj1 and Synaptophysin (1:1000, PA1-1043, Invitrogen, Waltham, MA, USA), anti-mouse Alexa fluor 488 (1:1000, A-11029, Invitrogen, Waltham, MA, USA) and anti-rabbit Alexa fluor 546 (1:1000, A10040, Invitrogen, Waltham, MA, USA). Images were acquired using confocal microscopy and the total area of synaptophysin positive puncta was measured and normalized to Tuj1 total area. […]

[2] = test system: Primary Dorsal Root Ganglia (DRG) neurons; experiment: TUNEL assay in primary DRG neurons upon NGF withdrawal; type: cell-based, mouse; conditions: 500 nM every 24 h, 48 h, NGF-neutralizing antibody
Method: Primary Dorsal Root Ganglia (DRG) neurons were isolated from P0-P1 mouse pups (C57BL/6J, The Jackson Laboratory, Bar Harbor, ME, USA) as described previously and cultured with Neurobasal medium (21103049 Gibco, Grand Island, NY, USA) containing 2% B27 (17504044, Gibco, Grand Island, NY, USA), 100 ng/mL NGF (N-100, Alomone Labs, Jerusalem, Israel), 1X GlutaMax (35050061, Gibco, Grand Island, NY, USA), 10 mM HEPES (15630080, Gibco, Grand Island, NY, USA), 1% Penicillin/Streptomycin (15070063, Gibco, Grand Island, NY, USA) and 10 μM 5-Fluoro-2′-deoxyuridine (343333, Calbiochem, Darmstadt, Germany). For TUNEL assay, cells were cultured for 14 days in vitro and then the medium was deprived of NGF before adding ENT-A013 (500 nM, every 24 h) along with NGF-neutralizing antibody (N8773, 1:500, Sigma-Aldrich, St. Louis, MO, USA). Cells were then incubated for 48 h before being fixed with 4% PFA and labelled with TUNEL (11684795910, F. Hoffmann–La Roche Ltd., Basel, Switzerland) following the manufacturer’s protocol. Subsequently, cells were immunostained against Tuj1 (1:2000, 801201, Biolegend, Inc., San Diego, CA, USA) and anti-mouse Cy3 (1:1000, Invitrogen, A10521, Waltham, MA, USA) and imaged with a Leica SP8 confocal microscope. […] Cells were then imaged by confocal microscopy and neurite length was measured using Fiji software (NIH, Bethesda, Maryland, USA).

hippocampal brain slices = experiment: LTP electrophysiology in hippocampal brain slices treated with oligomeric Aβ; set-up: species or system mouse; conditions: oligomeric Aβ 5 μM, 500 nM, 3–5 h, vs slices treated only with Aβ
Text: C57BL/6J mice were euthanized under halothane anesthesia and the brain was quickly dissected and placed in ice-cold oxygenated artificial cerebrospinal fluid (aCSF; 95% O2/5% CO2) containing (in mM): 125 NaCl, 3.5 KCl, 26 NaHCO3, 1 MgCl2 and 10 glucose (pH = 7.4, 315 mOsm/L). The brain was then placed onto the stage of a vibratome (Leica, VT1000S, Leica Biosystems GmbH, Wetzlar, Germany) and transverse slices containing the hippocampus were obtained. […] Field excitatory post-synaptic potentials (fEPSP) were amplified using an EXT-02F amplifier ([…]), digitized with ITC-18 (HEKA Elektronik GmbH, Reutlingern, Germany) and recorded in a computer running Windows 10 with IgorPro software (Wavemetrics Inc., Portland, OR, USA). […] The fEPSP amplitude was calculated from the minimum voltage value of the synaptic response (3–5 ms following stimulation) compared to the baseline voltage prior to stimulation. fEPSP recordings were acquired every 90″ for 10′ before TBS and continued for approximately 50′ following LTP induction. Recorded traces were analyzed using a custom-made script in the IgorPro software (Wavemetrics Inc., Portland, OR, USA).

**Q.** How did the “apoptosis (TUNEL)” value [1] turn out when `CC12CCC(O)CC1=CCC1C2CCC2(C)C1CCC21CC1C=CBr` [ENT-A013, (2′R,3S,17S)-2′-(2-Bromovinyl)-5-Androstene-17,1′-Cyclopropan-3-ol] was run?
**A.** 29.8% ± 2.5%

**Q.** What about the “NGF deprivation-induced apoptosis (TUNEL, in words)” value [2] of the same molecule?
**A.** significantly reverse the NGF deprivation-induced apoptosis

**Q.** And the “synaptic potentiation after TBS (in words)” value (hippocampal brain slices)?
**A.** significantly increased synaptic potentiation
